Columns and labels:
Experiment in all cases: Post-emergence herbicidal action
Format in all cases: in vivo
[1] = system: Polygonum convolvulus; conditions: application rate 20 g/ha
Description: (§1) a. Post-Emergence Herbicidal Action and Crop Plant Compatibility Seeds of monocotyledonous and dicotyledonous weeds and crop plants were placed in sandy loam in plastic or wood-fiber pots, covered with soil and cultivated in a greenhouse under controlled growth conditions. 2 to 3 weeks after sowing, the test plants were treated at the one-leaf stage. The compounds of the invention, formulated in the form of wettable powders (WP) or as emulsion concentrates (EC), were then sprayed onto the green parts of the plants as aqueous suspension or emulsion with addition of 0.5% additive at a water application rate of 600 l/ha (converted). After the test plants had been kept in the greenhouse under optimum growth conditions for about 3 weeks, the activity of the preparations was rated visually in comparison to untreated controls. For example, 100% activity=the plants have died, 0% activity=like control plants. Tables A1 to A15 below show the effects of selected compounds of the general formula (I) according to Tables I.1 to I.36 on various harmful plants and at an application rate corresponding to 20 g/ha and less, which were obtained by the experimental procedure mentioned above.

[2] = system: Amaranthus retroflexus; conditions: application rate 20 g/ha, rated visually after about 3 weeks vs untreated controls
Description: as §1

[3] = system: Lolium rigidum; conditions: application rate 20 g/ha, rated visually after about 3 weeks vs untreated controls
Description: as §1

[4] = system: Avena fatua; conditions: application rate 20 g/ha, rated visually after about 3 weeks vs untreated controls
Description: as §1

[5] = system: Viola tricolor; conditions: application rate 20 g/ha
Description: as §1

[6] = system: Pharbitis purpurea; conditions: application rate 20 g/ha, rated visually after about 3 weeks vs untreated controls
Description: as §1

[7] = system: Setaria viridis; conditions: application rate 20 g/ha, rated visually after about 3 weeks vs untreated controls
Description: as §1

[8] = system: Alopecurus myosuroides; conditions: application rate 20 g/ha, rated visually after about 3 weeks vs untreated controls
Description: as §1

[9] = system: Echinochloa crus-galli; conditions: application rate 20 g/ha, rated visually after about 3 weeks vs untreated controls
Description: as §1

[10] = system: Matricaria inodora; conditions: application rate 20 g/ha, rated visually after about 3 weeks vs untreated controls
Description: as §1

[11] = system: Abutilon theophrasti; conditions: application rate 20 g/ha, rated visually after about 3 weeks vs untreated controls
Description: as §1

[12] = system: Digitaria sanguinalis; conditions: application rate 20 g/ha, rated visually after about 3 weeks vs untreated controls
Description: as §1

[13] = system: Veronica persica; conditions: application rate 20 g/ha
Description: as §1

Structure (SMILES) | Polygonum convolvulus (efficacy in %) [1] [%] | Amaranthus retroflexus (efficacy in %) [2] [%] | Lolium rigidum (efficacy in %) [3] [%] | Avena fatua (efficacy in %) [4] [%] | Viola tricolor (efficacy in %) [5] [%] | Pharbitis purpurea (efficacy in %) [6] [%] | Setaria viridis (efficacy in %) [7] [%] | Alopecurus myosuroides (efficacy in %) [8] [%] | Echinochloa crus-galli (efficacy in %) [9] [%] | Matricaria inodora (efficacy in %) [10] [%] | Abutilon theophrasti (efficacy in %) [11] [%] | Digitaria sanguinalis (efficacy in %) [12] [%] | Veronica persica (efficacy in %) [13] [%]
CCOCCOC(=O)COc1ncccc1Oc1cc(-n2c(=O)cc(C(F)(F)F)n(C)c2=O)c(F)cc1Cl [I.15-2] | 100 | 100 | 90 | 90 | 100 | 100 | 100 | 100 | 100 | 100 | 100 | 100 | 100
Cc1nn(C)cc1COC(=O)COc1ncccc1Oc1cc(-n2c(=O)cc(C(F)(F)F)n(C)c2=O)c(F)cc1Cl [I.15-366] | – | 100 | 90 | 90 | 100 | 100 | 100 | 100 | 100 | 100 | 100 | 100 | 100
Cc1c(COC(=O)COc2ncccc2Oc2cc(-n3c(=O)cc(C(F)(F)F)n(C)c3=O)c(F)cc2Cl)cnn1C [I.15-367] | – | 100 | 80 | 90 | 100 | 100 | 100 | 100 | 100 | 100 | 100 | 100 | 100
CCn1cc(COC(=O)COc2ncccc2Oc2cc(-n3c(=O)cc(C(F)(F)F)n(C)c3=O)c(F)cc2Cl)c(C)n1 [I.15-368] | – | 100 | 90 | 100 | 100 | 100 | 100 | 100 | 100 | 100 | 100 | 100 | 100
CCS(=O)(=O)NCCOC(=O)COc1ncccc1Oc1cc(-n2c(=O)cc(C(F)(F)F)n(C)c2=O)c(F)cc1Cl [I.15-421] | 100 | 100 | 100 | 100 | 100 | 100 | 100 | 100 | 100 | 100 | 100 | 100 | 100
CCOC(COC(=O)COc1ncccc1Oc1cc(-n2c(=O)cc(C(F)(F)F)n(C)c2=O)c(F)cc1Cl)OCC [I.15-422] | 100 | 100 | 100 | 80 | 100 | 100 | 100 | 100 | 100 | 100 | 100 | 100 | 100
COCCOC(=O)COc1ncccc1Oc1cc(-n2c(=O)cc(C(F)(F)F)n(C)c2=O)c(F)cc1Br [I.16-1] | 100 | 100 | 90 | 90 | 100 | 100 | 100 | 100 | 100 | 100 | 100 | 100 | 100
CCOCCOC(=O)COc1ncccc1Oc1cc(-n2c(=O)cc(C(F)(F)F)n(C)c2=O)c(F)cc1Br [I.16-2] | 100 | 100 | 100 | 100 | 100 | 100 | 100 | 100 | 100 | 100 | 100 | 100 | 100
COCCOCCOC(=O)COc1ncccc1Oc1cc(-n2c(=O)cc(C(F)(F)F)n(C)c2=O)c(F)cc1Br [I.16-23] | 100 | 100 | 100 | 100 | 100 | 100 | 100 | 100 | 100 | 100 | 100 | 100 | 100
Cn1c(C(F)(F)F)cc(=O)n(-c2cc(Oc3cccnc3OCC(=O)OCC3CCCO3)c(Br)cc2F)c1=O (centres unmarked) [I.16-71] | 100 | 100 | 90 | 90 | 100 | 100 | 100 | 100 | 100 | 100 | 100 | 100 | 100
Cn1c(C(F)(F)F)cc(=O)n(-c2cc(Oc3cccnc3OCC(=O)OCC#N)c(Br)cc2F)c1=O [I.16-176] | 90 | 100 | 80 | 90 | 100 | 100 | 100 | 100 | 100 | 100 | 100 | 100 | 100
Cn1c(C(F)(F)F)cc(=O)n(-c2cc(Oc3cccnc3OCC(=O)OCC3OCCO3)c(Br)cc2F)c1=O [I.16-424] | 100 | 100 | 80 | 90 | 100 | 100 | 100 | 100 | 100 | 100 | 100 | 100 | 100
COCCOCCOC(=O)COc1ncccc1Oc1cc(-n2c(=O)cc(C(F)(F)F)n(C)c2=O)c(F)cc1C#N [I.35-23] | – | 100 | – | 90 | 100 | 100 | 100 | 100 | 100 | 100 | 100 | 100 | 100
COCCOCCOC(=O)COc1ncc(F)cc1Oc1cc(-n2c(=O)cc(C(F)(F)F)n(C)c2=O)c(F)cc1Cl [I.36-23] | 90 | 100 | 90 | – | 100 | 100 | 100 | 100 | 100 | 100 | 100 | 100 | 100

Reference: patent publication US20220289708A1, “SUBSTITUTED N-PHENYL URACILS, SALTS THEREOF AND THEIR USE AS HERBICIDAL AGENTS” (Bayer Aktiengesellschaft, priority 2019, published 2022)
